For four molecules, IC50 and Selectivity index results are on record in publication PMC9057277 (RSC Advances, 2020).

Each structure is given as a SMILES string. Bounds are passed on as bounds.

The target of one experiment is T1, purified ovine COX-1 (Ovis aries, UniProt P05979).
T1 sequence (P05979 25-600): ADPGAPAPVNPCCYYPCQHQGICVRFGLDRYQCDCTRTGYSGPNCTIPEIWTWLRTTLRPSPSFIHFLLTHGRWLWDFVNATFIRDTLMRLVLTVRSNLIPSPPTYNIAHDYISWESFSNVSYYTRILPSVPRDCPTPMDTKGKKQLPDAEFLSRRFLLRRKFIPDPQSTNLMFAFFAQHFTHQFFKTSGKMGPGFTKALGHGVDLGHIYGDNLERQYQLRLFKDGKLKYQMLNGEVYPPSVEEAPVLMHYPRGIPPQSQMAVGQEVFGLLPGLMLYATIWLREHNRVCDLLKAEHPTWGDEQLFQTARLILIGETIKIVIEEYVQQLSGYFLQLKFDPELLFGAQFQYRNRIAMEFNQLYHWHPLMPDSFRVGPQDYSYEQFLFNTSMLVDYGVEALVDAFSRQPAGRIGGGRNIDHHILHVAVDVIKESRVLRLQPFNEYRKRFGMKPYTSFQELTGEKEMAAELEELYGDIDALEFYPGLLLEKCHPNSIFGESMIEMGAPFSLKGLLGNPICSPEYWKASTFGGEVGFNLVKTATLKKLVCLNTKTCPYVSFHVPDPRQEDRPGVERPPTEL
Description: COX Fluorescent Inhibitor Screening Assay Kit, COX-1.

The target in the next experiment is T2, recombinant human COX-2 (Homo sapiens, UniProt P35354).
T2 construct: purchased Cayman Chemical, Ann Arbor, MI 700100
T2 sequence (P35354 18-604): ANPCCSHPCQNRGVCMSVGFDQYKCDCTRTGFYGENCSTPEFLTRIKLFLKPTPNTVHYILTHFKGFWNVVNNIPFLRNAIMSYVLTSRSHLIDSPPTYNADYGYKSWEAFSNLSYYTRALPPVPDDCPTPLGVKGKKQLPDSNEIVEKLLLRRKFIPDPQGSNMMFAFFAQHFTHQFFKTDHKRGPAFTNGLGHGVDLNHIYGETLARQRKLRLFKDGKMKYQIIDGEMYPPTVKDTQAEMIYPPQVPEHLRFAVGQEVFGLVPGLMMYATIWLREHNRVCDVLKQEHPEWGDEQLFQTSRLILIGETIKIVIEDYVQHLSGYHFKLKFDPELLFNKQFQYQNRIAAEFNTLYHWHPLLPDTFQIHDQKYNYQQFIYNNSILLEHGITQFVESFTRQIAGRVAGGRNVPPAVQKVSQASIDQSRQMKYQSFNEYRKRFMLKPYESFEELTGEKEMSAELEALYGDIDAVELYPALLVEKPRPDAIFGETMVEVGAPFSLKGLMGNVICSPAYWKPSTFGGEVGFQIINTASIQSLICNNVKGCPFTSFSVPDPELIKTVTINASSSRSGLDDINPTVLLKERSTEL
Briefly: COX Fluorescent Inhibitor Screening Assay Kit, COX-2. The note with it: for Selectivity index: IC50 (COX-1)/IC50 (COX-2). Format: biochemical.

As usually defined, the IC50 is the concentration that gives 50% inhibition.

Description for purified ovine COX-1: 7.4.1 COX inhibition assay
The COX inhibition potency against ovine COX-1 and human COX-2 was determined using the
fluorescence-based COX assay ’COX Fluorescent Inhibitor Screening Assay Kit‘ (catalog number
reported by us.7 In brief, as a measure of COX mediated conversion of arachidonic acid to PG H2 in the
presence of different inhibitor concentrations this assay utilizes the peroxidase component of COX and
analyzes the formation of fluorescent resorufin. All compounds were assayed in a concentration range
of 10 nM to 100 μM, and every inhibitor concentration was assayed in duplicate.
as internal control. IC50 values were estimated using a nonlinear logistic regression ﬁtting procedure
(sigmoidal dose−response model) with Prism Software.

As to `Cc1ccc(-c2cc(CCF)nn2-c2ccc(S(C)(=O)=O)cc2)cc1` [5b], the results for the IC50 against purified ovine COX-1 and on recombinant human COX-2 were 38.5 µM and 2.53 µM, respectively. In addition, on recombinant human COX-2, the Selectivity index turned out to be 15.

Consider `CS(=O)(=O)c1ccc(-n2nc(CCF)cc2-c2ccccc2)cc1` [5c], for which the IC50 at purified ovine COX-1 is > 100 µM. On recombinant human COX-2, the IC50 worked out at 4.97 µM and the Selectivity index is >20.

For `Cc1ccc(-c2cc(CCF)n(-c3ccc(S(C)(=O)=O)cc3)n2)cc1` [5d], the IC50 against purified ovine COX-1 and on recombinant human COX-2 was > 100 µM in each case.

As for `[2H]C([2H])(F)c1cc(-c2ccc(C)cc2)n(-c2ccc(S(C)(=O)=O)cc2)n1` [[D2]5a], the values for the IC50 on purified ovine COX-1 and at recombinant human COX-2 were > 100 µM and 0.97 µM, respectively. In addition, the Selectivity index at recombinant human COX-2 was >103.
